Holding throughout (assay type): cell-based
Experiment [1] has as its target T1, 17β-hydroxysteroid dehydrogenase type 2 (17β-HSD type 2) (Homo sapiens, UniProt P37059).
T1 construct: expressed in transfected cells; host or cells: MCF-7
T1 sequence (P37059 1-387): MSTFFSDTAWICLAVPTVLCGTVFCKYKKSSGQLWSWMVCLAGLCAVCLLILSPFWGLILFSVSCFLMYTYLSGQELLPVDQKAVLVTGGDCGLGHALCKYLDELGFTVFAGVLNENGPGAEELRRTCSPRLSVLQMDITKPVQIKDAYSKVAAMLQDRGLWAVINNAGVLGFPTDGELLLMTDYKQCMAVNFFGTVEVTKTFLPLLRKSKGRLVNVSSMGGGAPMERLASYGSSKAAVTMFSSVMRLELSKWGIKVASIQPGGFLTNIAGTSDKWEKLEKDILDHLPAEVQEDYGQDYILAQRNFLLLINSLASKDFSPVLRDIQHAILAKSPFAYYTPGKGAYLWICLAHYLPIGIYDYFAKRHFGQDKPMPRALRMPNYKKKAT
The experiment can be described thus: Inhibition of 17β-HSD type 2 in MCF-7 cells stably expressing the isoenzyme (tritium labeled estradiol conversion, HPLC). Conditions: MCF7, MCF-7 cells expressing 17β-HSD type 2, 2 nM tritium labeled estradiol; for inhibition at 1 µM: 1 μM test compound, read-out: % Inhibition HSD2 1 μM; for inhibition at 10 µM: 10 μM test compound, read-out: % Inhibition HSD2 10 μM. In a few lines:
(§1)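 Cells: stable MCF-7 transfectants per isoenzyme. Step one, add compound (two concentrations) plus 2 nM labelled substrate to growth medium. Step two, remove medium at a set time and stop with trichloroacetic acid. Step three, quantify conversion by HPLC with flow scintillation.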

Experiment [2] addresses T2, 17β-hydroxysteroid dehydrogenase type 3 (17β-HSD type 3) (Homo sapiens, UniProt P37058).
T2 construct: expressed in transfected cells; host or cells: MCF-7
T2 sequence (P37058 1-310): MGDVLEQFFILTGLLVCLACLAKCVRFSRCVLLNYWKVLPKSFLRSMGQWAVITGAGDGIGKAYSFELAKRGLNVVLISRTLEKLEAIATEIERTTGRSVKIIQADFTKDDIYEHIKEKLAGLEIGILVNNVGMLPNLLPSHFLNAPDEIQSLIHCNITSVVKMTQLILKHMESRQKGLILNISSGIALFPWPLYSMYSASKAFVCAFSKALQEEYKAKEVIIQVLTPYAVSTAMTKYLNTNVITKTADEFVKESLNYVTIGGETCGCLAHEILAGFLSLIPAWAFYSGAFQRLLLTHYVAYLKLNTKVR
The experiment is described as follows: Inhibition of 17β-HSD type 3 in MCF-7 cells stably expressing the isoenzyme (tritium labeled androstenedione conversion, HPLC). Conditions: MCF7, MCF-7 cells expressing 17β-HSD type 3, 2 nM tritium labeled androstenedione; for inhibition at 1 µM: 1 μM test compound, read-out: % Inhibition HSD3 1 μM; for inhibition at 10 µM: 10 μM test compound, read-out: % Inhibition HSD3 10 μM. In a few lines:
as §1

The target in experiment [3] is T3, 17β-hydroxysteroid dehydrogenase type 1 (17β-HSD type 1) (Homo sapiens, UniProt P14061).
T3 construct: expressed in transfected cells; host or cells: MCF-7
T3 sequence (P14061 1-328): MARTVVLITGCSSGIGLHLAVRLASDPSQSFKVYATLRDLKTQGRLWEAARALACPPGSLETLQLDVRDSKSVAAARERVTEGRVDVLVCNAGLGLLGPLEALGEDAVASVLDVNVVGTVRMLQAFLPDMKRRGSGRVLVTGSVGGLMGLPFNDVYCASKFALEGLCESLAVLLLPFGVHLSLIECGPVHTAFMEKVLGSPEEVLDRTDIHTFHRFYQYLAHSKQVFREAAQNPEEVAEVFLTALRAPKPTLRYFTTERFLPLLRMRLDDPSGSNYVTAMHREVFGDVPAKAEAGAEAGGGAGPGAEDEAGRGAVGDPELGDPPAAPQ
The experiment is described as follows: Inhibition of 17β-HSD type 1 in MCF-7 cells stably expressing the isoenzyme (tritium labeled estrone conversion, HPLC). The following applies: MCF7, MCF-7 cells expressing 17β-HSD type 1, 2 nM tritium labeled estrone; for inhibition at 1 µM: 1 μM test compound, read-out: % Inhibition HSD1 1 μM; for inhibition at 10 µM: 10 μM test compound, read-out: % Inhibition HSD1 10 μM. Put shortly: as §1

Broadly, the inhibition is the drop in the measured response relative to a control, in per cent.

Take `CC(=O)OCc1nc2sc3c(c2c(=O)n1-c1ccccc1)CCCC3` [No. 39, Acetic acid 4-oxo-3-phenyl-3,4,5,6,7,8-hexahydro-benzo[4,5]thieno[2,3-d]pyrimidin-2-ylmethyl ester]: the inhibition at 1 µM turned out to be 25% in experiment [1], 18.5% in experiment [2] and 21.1% in experiment [3]. In addition, the inhibition at 10 µM came out at 9.5% in experiment [1], 12.8% in experiment [2] and 13.2% in experiment [3].

For `CCOC(=O)c1nc2sc3c(c2c(=O)n1-c1ccccc1)CCCC3` [No. 40, 4-Oxo-3-phenyl-3,4,5,6,7,8-hexahydro-benzo[4,5]thieno[2,3-d]pyrimidine-2-carboxylic acid ethyl ester], the inhibition at 1 µM turned out to be 13.8% in experiment [1], 3.8% in experiment [2] and 15.6% in experiment [3]. The inhibition at 10 µM was determined as 5.3% in experiment [1], 16.2% in experiment [2] and 25% in experiment [3].

In the case of `O=c1c2c3c(sc2nc(-c2cc(O)c(O)c(O)c2)n1Cc1ccccc1)CCCC3` [No. 41, 3-Benzyl-2-(3,4,5-trihydroxyphenyl)-5,6,7,8-tetrahydro-3H-benzo[4,5]thieno[2,3-d]pyrimidin-4-one], the inhibition at 1 µM was 17.9% in experiment [1], 22.5% in experiment [2] and 5.7% in experiment [3]. The inhibition at 10 µM in experiment [1] worked out at 17.7%; in experiment [2], 34.5%; in experiment [3] it was 10%.

As for `COc1c(O)cc(-c2nc3sc4c(c3c(=O)n2-c2ccccc2)CCCC4)cc1O` [No. 42, 3-Phenyl-2-(3,5-dihydroxy-4-methoxyphenyl)-5,6,7,8-tetrahydro-3H-benzo[4,5]thieno[2,3-d]pyrimidin-4-one], the inhibition at 1 µM in experiment [1] is -1.9%; in experiment [2], 3.2%; in experiment [3], 26.8%. Moreover, the inhibition at 10 µM is -0.5% in experiment [1], 4% in experiment [2] and 56% in experiment [3].

`O=c1c2c3c(sc2nc(-c2cc(O)c(O)c(O)c2)n1-c1ccccc1)CCCC3` [No. 43, 3-Phenyl-2-(3,4,5-trihydroxyphenyl)-5,6,7,8-tetrahydro-3H-benzo[4,5]thieno[2,3-d]pyrimidin-4-one]: the inhibition at 1 µM in experiment [1] was 18%; in experiment [2] it was -2.5%; in experiment [3], 12%. Further, the inhibition at 10 µM is 15% in experiment [1], -0.9% in experiment [2] and 23.8% in experiment [3].

Consider `Cc1nc2sc3c(c2c(=O)n1-c1ccccc1)CCC(Br)C3=O` (stereo not drawn) [No. 44, 7-Bromo-2-methyl-3-phenyl-6,7-dihydro-3H,5H-benzo[4,5]thieno[2,3-d]pyrimidine-4,8-dione], for which the inhibition at 1 µM in experiment [1] was 2.2%; in experiment [2] it was -22.5%; in experiment [3], 10.5%. Besides, the values for the inhibition at 10 µM in experiment [1], in experiment [2] and in experiment [3] were 16.3%, 26.3% and 55.6%, respectively.

In the case of `Cc1nc2sc3c(c2c(=O)n1-c1ccccc1)CCC(Br)(Br)C3=O` [No. 45, 7,7-Dibromo-2-methyl-3-phenyl-6,7-dihydro-3H,5H-benzo[4,5]thieno[2,3-d]pyrimidine-4,8-dione], the inhibition at 1 µM in experiment [1] is 3.5%; in experiment [2] it was -2.2%; in experiment [3], -7.7%. Besides, the inhibition at 10 µM was 6.5% in experiment [1], 4.1% in experiment [2] and -18.3% in experiment [3].

As to `COc1cc(-c2nc3sc4c(c3c(=O)n2Cc2ccccc2)CCC(Br)C4=O)cc(OC)c1OC` (stereo not drawn) [No. 46, 3-benzyl-7-bromo-2-(3,4,5-trimethoxyphenyl)-6,7-dihydro-3H,5H-benzo[4,5]thieno[2,3-d]pyrimidine-4,8-dione], the inhibition at 1 µM in experiment [1] was found to be 44%; in experiment [2] it was 31.4%; in experiment [3], 32.1%. Moreover, the inhibition at 10 µM in experiment [1] was 20.9%; in experiment [2], 37.1%; in experiment [3] it was 72.2%.

In the case of `COc1cc(-c2nc3sc4c(c3c(=O)n2Cc2ccccc2)CCC(Br)C4=O)c(Br)c(OC)c1OC` (stereo not drawn) [No. 47, 3-benzyl-7-bromo-2-(2-bromo-3,4,5-trimethoxyphenyl)-6,7-dihydro-3H,5H-benzo[4,5]thieno[2,3-d]pyrimidine-4,8-dione], the inhibition at 1 µM in experiment [1] stood at 31.9%; in experiment [2], 39.7%; in experiment [3], 16.1%. Besides, the inhibition at 10 µM in experiment [1] came out at 59%; in experiment [2] it was 52.2%; in experiment [3], 63.2%.

On to `COc1cc(-c2nc3sc4c(c3c(=O)n2Cc2ccccc2)CCC(Br)(Br)C4=O)c(Br)c(OC)c1OC` [No. 48, 3-benzyl-7,7-dibromo-2-(2-bromo-3,4,5-trimethoxyphenyl)-6,7-dihydro-3H,5H-benzo[4,5]thieno[2,3-d]pyrimidine-4,8-dione], for which the inhibition at 1 µM in experiment [1] is 0.8%; in experiment [2], 33.7%; in experiment [3], 27.4%. For the same compound, the inhibition at 10 µM in experiment [1] amounted to 25.6%; in experiment [2] it was 23.4%; in experiment [3] it was 36.5%.

Regarding `COc1cc(-c2nc3sc4c(O)cccc4c3c(=O)n2Cc2ccccc2)c(Br)c(OC)c1OC` [No. 49, 3-Benzyl-2-(2-bromo-3,4,5-trimethoxyphenyl)-8-hydroxy-3H-benzo[4,5]thieno[2,3-d]pyrimidin-4-one], the inhibition at 1 µM worked out at 20.1% in experiment [1], 12.4% in experiment [2] and 24.7% in experiment [3]. In addition, the inhibition at 10 µM in experiment [1] came to 36.9%; in experiment [2] it was 52.6%; in experiment [3], 86.2%.

For the compound `COc1cc(-c2nc3sc4c(OC(C)=O)cccc4c3c(=O)n2Cc2ccccc2)c(Br)c(OC)c1OC` [No. 50, Acetic acid 3-benzyl-2-(2-bromo-3,4,5-trimethoxyphenyl)-4-oxo-3,4-dihydro-benzo[4,5]thieno[2,3-d]pyrimidin-8-yl ester], the values for the inhibition at 1 µM in experiment [1], in experiment [2] and in experiment [3] were 32.4%, 32.9% and 34.4%, respectively. Moreover, the values for the inhibition at 10 µM in experiment [1], in experiment [2] and in experiment [3] were 39%, 75.8% and 65.8%, respectively.

As for `COc1cc(-c2nc3sc4c(O)c(Br)ccc4c3c(=O)n2Cc2ccccc2)c(Br)c(OC)c1OC` [No. 52, 3-benzyl-7-bromo-2-(2-bromo-3,4,5-trimethoxyphenyl)-8-hydroxy-3H-benzo[4,5]thieno[2,3-d]pyrimidin-4-one], the inhibition at 1 µM in experiment [1] was 0.1%; in experiment [2], -2.4%; in experiment [3] it was 4.7%. The inhibition at 10 µM in experiment [1] was determined as 19.1%; in experiment [2] it was 4.3%; in experiment [3], 11.6%.

As to `COc1cc(-c2nc3sc4c(O)cccc4c3c(=O)n2Cc2ccccc2)cc(OC)c1OC` [No. 53, 3-Benzyl-8-hydroxy-2-(3,4,5-trimethoxyphenyl)-3H-benzo[4,5]thieno[2,3-d]pyrimidin-4-one], the inhibition at 1 µM came out at 22.4% in experiment [1], 32.2% in experiment [2] and 52.2% in experiment [3]. The inhibition at 10 µM in experiment [1] is 60%; in experiment [2], 52.7%; in experiment [3], 71%.
